This is an account of results in patent US20230218723A1, “COMPOSITIONS AND METHODS FOR USING SILK-ELASTINLIKE PROTEIN-BASED POLYMERS” (University of Utah Research Foundation, priority 2019, published 2023).

For data set [1] the following is noted: cited from earlier work.
A short description of data set [2]: ICG fluorescence imaging, IVIS and clinical endoscope. The format is physicochemical. As for the experimental part:
A Karl Storz 4 mm×18 cm ICG endoscope (Karl Storz, Tuttlingen, Germany) attached with a Power LED light source with fiber optic ICG cable and Karl Storz Image is Video System with ICG High Def Camera Head (Karl Storz, Tuttlingen, Germany) was used for imaging the ICG at different concentrations. ICG solution was prepared by mixing 25 mg of ICG in 1 mL of water, resulting in a 25 mg/mL solution. The solution was diluted by half in subsequent wells of a 96-well plate, and the last well was filled with only water (negative control). The endoscope's imaging head was held 4 mm above the surface of the 96-well plate to acquire images. Fluorescent light was captured by the camera and shown as blue. The intensity of the fluorescent light was quantified using the Zen Lite Blue software version 2.6 (Zeiss, Oberkochen, Germany). A fixed area of equal size for each well was selected, and the fluorescence was quantified by taking the arithmetic mean intensity of blue contribution for that particular region in pixels. IVIS was used to image ICG at different concentrations. […] An overlay image combination of photographic and fluorescent image was recorded. The region of interest (ROI) tool was used to perform quantification of the surface intensities. Equal size ROIs were drawn on each well of the plate, and the radiant efficiency was recorded by the software for each defined ROI. […]

A further data set has as its system HUVEC. Nature of the data set: Cytotoxicity of ICG and SELP-ICG, CCK-8, HUVEC. Conditions: 24 hrs, as ICG concentration. Format: cell-based, human. An excerpt:
(§1) L-929 and HUVEC were selected for use in assessing the cytotoxicity of the SELP-ICG embolic based upon their utility with respect to regulatory testing and relevance to the intended application of the device. L-929 cells are commonly used for FDA testing of contact cytotoxicity of medical devices, such as embolics. HUVEC represents a human cell line, another common cell that is also frequently used for evaluating cytotoxicity. Additionally, HUVEC represents vascular endothelial cells that embolic SELP will be in close contact with during in vivo administration. L-929 fibroblasts were grown with Dulbecco's Modified Eagle Medium (DMEM):F12 (1:1) media, supplemented with 10% FBS, and HUVECs were grown in ECGM. The cells were grown in T-75 flasks at 37° C. with 5% CO2 and passaged at 80-95% confluency. Cells were suspended using TrypLE™ Express Enzyme with no phenol red according to the manufactures protocol. The viability of cells was assessed using 0.4% trypan blue stain using a Countess Automated Cell Counter (ThermoFisher Scientific, Waltham, Mass.). L-929 cells were seeded into new T-75 flasks with 3×10^5 to 6×10^5 viable cells. […] Viability was measured after 24 hrs using a Cell Counting Kit (CCK)-8 assay kit (Dojindo, Kumamoto, Japan). […] LD50 values were determined by fitting the data to a Hill plot with a variable slope using GraphPad Prism 5.0.

The test system of another data set is L-929 fibroblasts. The experiment in a line: Cytotoxicity of ICG and SELP-ICG, CCK-8, L-929. Format: cell-based, murine. Conditions: L929 cells, 24 hrs, as ICG concentration.
From the text: as §1

For the compound `CC1(C)C(/C=C/C=C/C=C/C=C2\N(CCCCS(=O)(=O)O)c3ccc4ccccc4c3C2(C)C)=[N+](CCCCS(=O)(=O)[O-])c2ccc3ccccc3c21` [ICG, Indocyanine green], in data set [1] (clearance from the bloodstream after intravenous administration), the half-life is 3 to 5 min. Moreover, the “share of the dose remaining within the tumor by the time of surgery” value in data set [1] (intravenous administration) is given as “approximately 0.05%”. Also, in data set [2] (IVIS and Karl Storz ICG endoscope), the “optimal concentration for fluorescence” value is given as 0.012 mg/mL. Moreover, the “concentration above which self-quenching occurs” value in data set [2] (image analysis) was “higher than 0.012 mg/mL”. Besides, the LD50 in the data set with HUVEC turned out to be 0.068 ± 0.009 mg/mL; in the data set on L-929 fibroblasts, 0.28 ± 0.14 mg/mL.
